Measurements from PubChem BioAssay AID489024 (Sanford-Burnham Center for Chemical Genomics, 2010).
The source made the active and inactive calls.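 The calls were made as follows: active = compounds whose mean EC50, the dose giving half the maximal reporter activation, is at or below a set limit; inactive = the rest.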

Target: CHO-CHOP luciferase reporter, UPR activation, luminescence
Test: CHOP reporter induction, apoptotic UPR branch – CHO-CHOP cells, luciferase luminescence, confirmation (AID 489024);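 also: compounds added alone to reporter cells with no tunicamycin stress co-treatment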

Row | Structure (SMILES) | EC50
1 | Cc1cccc(OCCN2CSC(=S)N(C)C2)c1 | > 80 µM (inactive)
2 | N#CC1=C(N)OC2=C(CC/C2=C\c2ccccc2)C1c1ccccc1 (stereo not given) | 6.51 µM
3 | Oc1c(CN2CCCCC2)cc(Br)c2cccnc12 | 10.6 µM
4 | CCOC(=O)/C(=C\c1cccc(O)c1)c1nc2sc(C)c(C)c2c(=O)[nH]1 | 13 µM
5 | Cc1cccc(N=Nc2ccc(O)c3ncccc23)c1 | 7.28 µM
6 | Cc1ccc2c(C(=O)CCl)c(C)[nH]c2c1 | 11.2 µM
7 | Cc1cccc(-n2c(/C=C/c3ccc([N+](=O)[O-])o3)nc3ccccc3c2=O)c1 | 11.7 µM
8 | Cc1nn(Cc2c(Cl)cccc2Cl)c(C)c1NC(=O)c1sc2ccccc2c1Cl | inactive
9 | CCOC(=O)C(=Cc1ccc(OCc2ccc([N+](=O)[O-])cc2)c(OC)c1)C(=O)OCC | 6.51 µM
10 | COc1ccccc1N1CCN(/N=C/c2ccc(O)c(O)c2)CC1 | 2.36 µM
11 | CC1=NOC(=O)/C1=C\c1ccc(-c2ccc(Cl)cc2Cl)o1 | 13.5 µM
12 | O=C(N/N=C/c1ccccn1)c1sc2ccccc2c1Cl | 7.31 µM
13 | Cc1ccc(C)c(C(=O)Cn2ncc(Cl)c(Cl)c2=O)c1 | 10.8 µM
14 | Cn1cc(/C=C2\SC(=O)NC2=S)c2ccccc21 | > 80 µM (inactive)
15 | O=C1NC(=O)N(c2ccccc2)C(=O)/C1=C/C=C/c1ccco1 | 9.82 µM
16 | CCCCCCCC(=O)Nc1ccc(C(=O)N/N=C/c2cccc([N+](=O)[O-])c2)cc1 | inactive
17 | COc1cccc2sc(Nc3nc(-c4ccccn4)cs3)nc12 | 1.65 µM
18 | CCc1ccc2nc(N(CCCN(C)C)C(=O)c3ccc(S(=O)(=O)N4CCc5ccccc5C4)cc3)sc2c1 | 7.12 µM
19 | CCc1cc2c(=O)c(-c3cnn(-c4ccccc4)c3)c(C)oc2cc1OCC(=O)Nc1cccc(C)c1 | 15.1 µM
20 | Oc1ccc(CN2CCN(c3ccccc3)CC2)c2cccnc12 | inactive
21 | O=C(N/N=C/c1ccccn1)c1cc(-c2ccc(Cl)cc2)nc2ccccc12 | 2.51 µM
22 | COc1ccccc1/C=N\Nc1cc(C)nc(-n2nc(C)cc2C)n1 | 13.9 µM
23 | COc1ccc(-c2cc(=O)oc3c(C)c(OC(=O)c4cccs4)ccc23)cc1 | inactive
24 | CCOc1ccccc1N=Cc1c(O)c2ccccc2oc1=O | 7.86 µM
25 | S=C(Nc1ccccc1)Nc1nccs1 | 17.5 µM
26 | COc1ccc(/C=C/c2nc3cc(-c4ccccc4)ccc3o2)cc1O | 12.7 µM
27 | CC1CCC/C=C/C2CC(O)CC2C(O)/C=C/C(=O)O1 (stereo not given) | 1.34 µM
28 | COc1ccc(-c2csc3nc(-c4ccc(C)cc4)oc(=O)c23)cc1OC | > 80 µM (inactive)

Row | Structure (SMILES) | EC50
29 | CS(=O)(=O)Oc1ccc2c(c1)O/C(=C\C=C\c1ccccc1)C2=O | inactive
30 | O=S(=O)(Nc1cccc2cccnc12)c1ccc(S(=O)(=O)N2CCCC2)cc1 | 13.9 µM
31 | CC1CCCCC1N1CN=C(Nc2nc3ccccc3s2)NC1 (stereo not given) | inactive
32 | Oc1ccc(-c2nc(-c3ccc(O)c(O)c3)cs2)cc1 | 9 µM
33 | Cc1ccc(C)c(NC(=S)c2ccccn2)c1 | inactive
34 | O=C(c1ccc(Br)cc1)C(CN1CCOCC1)c1ccccc1 (stereo not given) | 8.78 µM
35 | O=C(/C(=C\c1ccccc1)c1nc2ccccc2[nH]1)c1ccc(Cl)cc1 | 8.43 µM
36 | C=CCn1c(O)c(N=NC(=S)Nc2ccccc2F)c2cc(S(=O)(=O)N3CCOCC3)ccc21 | 7.34 µM
37 | Cc1cc(C)cc(N2C(=O)NC(=O)/C(=C\c3cccn3-c3ccccc3)C2=O)c1 | 13.9 µM
38 | Cc1ccc(NC(=O)Cn2ncc(Cl)c(Cl)c2=O)cc1S(=O)(=O)N1CCCCC1 | 6.45 µM
39 | Nc1cccc(-c2nc3cc(S(=O)(=O)c4ccc5oc(-c6cccc(N)c6)nc5c4)ccc3o2)c1 | inactive
40 | O=C(COc1ccc(/C=N/NC(=O)c2cc3ccccc3o2)cc1Br)Nc1ccccc1 | 3.83 µM
41 | CCOc1ccc(N2C(=O)/C(=C\c3cccs3)C(=O)NC2=S)cc1 | 8.68 µM
42 | O=C(/C(=C/c1cccc(Cl)c1)c1nc2ccccc2[nH]1)c1ccccc1 | 6.66 µM
43 | O=C(NCCc1ccccc1)c1coc(=O)c(Br)c1 | 7.83 µM
44 | CC(C)c1nnc(NC(=O)CCS(=O)(=O)c2nc(-c3cccs3)cc(C(F)(F)F)n2)s1 | 13.5 µM
45 | C/C(=N/NC(=O)c1ccc(C(C)(C)C)cc1)c1ccccn1 | 2.88 µM
46 | O=S(=O)(Nc1cccc2cccnc12)c1ccccc1 | 4.18 µM
47 | CCOC(=O)/C(=C\c1ccccc1)C(=O)c1cc(C(C)=O)c(Nc2ccccc2)s1 | 6.37 µM
48 | Cc1ccc(/C=C/C(=O)c2ccc([N+](=O)[O-])o2)cc1 | 6.46 µM
49 | COCCN1CSC(=S)N(Cc2ccco2)C1 | > 80 µM (inactive)
50 | Cc1ccc(S(=O)(=O)Nc2cccc3cccnc23)c([N+](=O)[O-])c1 | 7.17 µM
51 | Cc1cc(C(=O)CCl)c(C)n1Cc1ccco1 | 7.35 µM
52 | Cc1ccc(S(=O)(=O)N(C(=O)c2ccncc2)c2ccc(OC(=O)c3ccncc3)c3ccccc23)c(C)c1 | 16.7 µM
53 | c1ccc(CSC2=NNC(c3ccccn3)S2)cc1 (stereo not given) | 4.29 µM
54 | Oc1cc(-c2cccnc2)cc2cccnc12 | inactive
55 | Cn1c2ccccc2c2cc(/C=N/NC(=O)c3cc(O)ccc3O)ccc21 | 5.37 µM
